In patent publication US12459974B2, “Bicyclic peptide ligands specific for Nectin-4” (priority 2018, dated 2025) one finds Ki data, which are given here for eleven compounds.

*1 amine or outer side, *2 acyl side, *3 side chain or, on linkers, in order; H or OH if unused. Where a SMILES comes first, the peptide text is derived from it. Bridges are numbered along the chain shown (N, C = ends). TATA = O=C(CC[*:1])N1CN(C(=O)CC[*:2])CN(C(=O)CC[*:3])C1

The target of the assay is T1, human Nectin-4 (Homo sapiens, UniProt Q96NY8).
T1 sequence (Q96NY8 32-510): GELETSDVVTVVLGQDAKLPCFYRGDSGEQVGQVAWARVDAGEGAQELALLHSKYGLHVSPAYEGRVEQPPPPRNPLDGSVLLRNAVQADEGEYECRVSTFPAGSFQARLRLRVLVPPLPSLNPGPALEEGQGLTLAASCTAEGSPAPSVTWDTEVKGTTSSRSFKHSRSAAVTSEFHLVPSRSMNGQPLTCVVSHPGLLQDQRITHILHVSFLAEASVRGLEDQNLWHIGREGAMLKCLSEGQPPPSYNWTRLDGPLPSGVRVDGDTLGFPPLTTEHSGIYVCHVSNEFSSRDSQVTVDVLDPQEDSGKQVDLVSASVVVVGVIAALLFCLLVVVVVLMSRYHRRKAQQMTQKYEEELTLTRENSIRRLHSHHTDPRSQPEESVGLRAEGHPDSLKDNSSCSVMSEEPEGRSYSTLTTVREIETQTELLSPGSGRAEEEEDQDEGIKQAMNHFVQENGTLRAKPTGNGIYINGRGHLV
The assay is described as follows: Nectin-4 competition binding assay (fluorescence polarisation). The following applies: competition with fluorescent peptide SEQ ID NO: 217; read-out: Ki. Here is the method:
Peptides were diluted to an appropriate concentration in assay buffer as described in the direct binding assay with a maximum of 5% DMSO, then serially diluted 1 in 2. Five μL of diluted peptide was added to the plate followed by 10 μL of human Nectin-4, then 10 μL fluorescent peptide added. Measurements were conducted as for the direct binding assay, however the gain was determined prior to the first measurement. Data analysis was in Systat Sigmaplot version 12.0 where the mP values were fit to a user defined cubic equation to generate a Ki value: • f=ymin+(ymax−ymin)/Lig*((Lig*((2*((Klig+Kcomp+Lig+Comp-Prot*c)^2-3*(Kcomp*(Lig-Prot*c)+Klig*(Comp-Prot*c)+Klig*Kcomp))^0.5*COS(ARCCOS((−2*(Klig+Kcomp+Lig+Comp-Prot*c)^3+9*(Klig+Kcomp+Lig+Comp-Prot*c)*(Kcomp*(Lig-Prot*c)+Klig*(Comp-Prot*c)+Klig*Kcomp)−27*(−1*Klig*Kcomp*Prot*c)/(2*((((Klig+Kcomp+Lig+Comp-Prot*c)^2−3*(Kcomp*(Lig-Prot*c)+Klig*(Comp-Prot*c)+Klig*Kcomp))^3)^0.5)))/3))−(Klig+Kcomp+Lig+Comp-Prot*c)))/((3*Klig)+((2*((Klig+Kcomp+Lig+Comp-Prot*c)^2−3*(Kcomp*(Lig-Prot*c)+Klig*(Comp-Prot*c)+Klig*Kcomp))^0.5*COS (ARCCOS ((−2*(Klig+Kcomp+Lig+Comp-Prot*c)^3+9*(Klig+Kcomp+Lig+Comp-Prot*c)*(Kcomp*(Lig-Prot*c)+Klig*(Comp-Prot*c)+Klig*Kcomp)-27*(−1*Klig*Kcomp*Prot*c))/(2*((((Klig+Kcomp+Lig+Comp-Prot*c)^2-3*(Kcomp*(Lig-Prot*c)+Klig*(Comp-Prot+c)+Klig*Kcomp))^3)^0.5))/3)−(Klig+Kcomp+Lig+Comp-Prot*c)))).
“Lig”, “KLig” and “Prot” were all defined values relating to: fluorescent peptide concentration, the Kd of the fluorescent peptide and Nectin concentration respectively.
(In general: In fluorescence polarisation assays a small probe gives low polarisation when free and higher when bound to something large.)
For orientation: Ki means the equilibrium dissociation constant of an inhibitor or competing ligand from its target. Regarding `CC[C@H](C)[C@@H]1NC(=O)[C@@H]2CSCCC(=O)N3CN(CN(C3)C(=O)CCSC[C@H](NC(=O)[C@H](C)N)C(=O)N3CCC[C@H]3C(=O)N[C@@H](Cc3ccccc3)C(=O)NCC(=O)N2)C(=O)CCSC[C@@H](C(=O)N[C@@H](CCC(N)=O)C(=O)N[C@@H](CCSC)C(=O)N[C@@H](CCC(=O)O)C(N)=O)NC(=O)[C@H](Cc2c[nH]c3ccccc23)NC(=O)[C@H]([C@@H](C)CC)NC(=O)[C@@H]2CCCN2C(=O)[C@H](Cc2c[nH]c3ccccc23)NC(=O)[C@H](CO)NC(=O)[C@H](Cc2c[nH]c3ccccc23)NC(=O)[C@H](CO)NC(=O)[C@H](CCCCN)NC1=O` [BCY3397, A-(SEQ ID NO: 55)-QME] (H-ACPFGCIKSWSWPIWCQME-NH2; linker 2-6-16 via TATA; N-terminus and C-terminus assumed), the Ki is 33.2 nM.
As for `CC[C@H](C)[C@@H]1NC(=O)[C@@H]2CCCN2C(=O)[C@H](Cc2c[nH]c3ccccc23)NC(=O)[C@H](CO)NC(=O)[C@H](Cc2c[nH]c3ccccc23)NC(=O)[C@H](CC(N)=O)NC(=O)[C@H](CCCCNC(=N)N)NC(=O)[C@H](CCSC)NC(=O)[C@@H]2CSCCC(=O)N3CN(CN(C3)C(=O)CCSC[C@H](NC(C)=O)C(=O)N3CCC[C@H]3C(=O)N[C@@H](Cc3ccccc3)C(=O)NCC(=O)N2)C(=O)CCSC[C@@H](C(N)=O)NC(=O)[C@H](Cc2c[nH]c3ccccc23)NC1=O` [BCY7660, Ac-(SEQ ID NO: 59)], the Ki was 26.2 nM.
For the compound `CC[C@H](C)[C@@H]1NC(=O)[C@@H]2CCCN2C(=O)[C@H]([C@@H](C)O)NC(=O)[C@H](CO)NC(=O)[C@H](Cc2c[nH]c3ccccc23)NC(=O)[C@H](CC(N)=O)NC(=O)[C@H](CCCCN)NC(=O)[C@H](CCSC)NC(=O)[C@@H]2CSCCC(=O)N3CN(CN(C3)C(=O)CCSC[C@H](NC(C)=O)C(=O)N3CCC[C@H]3C(=O)N[C@@H](Cc3ccccc3)C(=O)NCC(=O)N2)C(=O)CCSC[C@@H](C(N)=O)NC(=O)[C@H](Cc2c[nH]c3ccccc23)NC1=O` [BCY7665, Ac-(SEQ ID NO: 19)] (Ac-CPFGCMKNWSTPIWC-NH2; linker 1-5-15 via TATA; C-terminus assumed), the Ki is 24.1 nM.
As for `CC[C@H](C)[C@@H]1NC(=O)[C@@H]2CCCN2C(=O)[C@H](Cc2c[nH]c3ccccc23)NC(=O)[C@H](CO)NC(=O)[C@H](Cc2c[nH]c3ccccc23)NC(=O)[C@H](CC(N)=O)NC(=O)[C@H](CO)NC(=O)[C@H](CCSC)NC(=O)[C@@H]2CSCCC(=O)N3CN(CN(C3)C(=O)CCSC[C@H](NC(C)=O)C(=O)N3CCC[C@H]3C(=O)N[C@@H](Cc3ccccc3)C(=O)NCC(=O)N2)C(=O)CCSC[C@@H](C(N)=O)NC(=O)[C@H](Cc2c[nH]c3ccccc23)NC1=O` [BCY7658, Ac-(SEQ ID NO: 12)] (Ac-CPFGCMSNWSWPIWC-NH2; linker 1-5-15 via TATA; C-terminus assumed), the figure is 33.6 nM.
As for `CC[C@H](C)[C@@H]1NC(=O)[C@H](C)NC(=O)[C@H](CC(N)=O)NC(=O)[C@@H]2CSCCC(=O)N3CN(CN(C3)C(=O)CCSC[C@H](NC(=O)[C@H](Cc3c[nH]c4ccccc34)NC(=O)[C@H](CCCCN)NC(=O)[C@H](CCC(N)=O)NC(C)=O)C(=O)N[C@@H](C)C(=O)N3CCC[C@H]3C(=O)N[C@@H](CC(C)C)C(=O)N[C@@H](CO)C(=O)N[C@@H](CC(=O)O)C(=O)N[C@@H](Cc3ccc(O)cc3)C(=O)N[C@@H](Cc3c[nH]c4ccccc34)C(=O)N2)C(=O)CCSC[C@@H](C(N)=O)NC1=O` [BCY7632, Ac-QKW-(SEQ ID NO: 107)] (Ac-QKWCAPLSDYWCNAIC-NH2; linker 4-12-16 via TATA; C-terminus assumed), the figure is 123 nM.
As for `CC[C@H](C)[C@@H]1NC(=O)[C@@H]2CCCN2C(=O)[C@H](Cc2c[nH]c3ccccc23)NC(=O)[C@H](CO)NC(=O)[C@H](Cc2c[nH]c3ccccc23)NC(=O)[C@H](CC(=O)O)NC(=O)[C@H](CO)NC(=O)[C@H](CCSC)NC(=O)[C@@H]2CSCCC(=O)N3CN(CN(C3)C(=O)CCSC[C@H](NC(=O)[C@H](C)N)C(=O)N3CCC[C@H]3C(=O)N[C@@H](Cc3ccccc3)C(=O)NCC(=O)N2)C(=O)CCSC[C@@H](C(=O)N[C@@H](CO)C(=O)N[C@H](C(=O)N[C@@H](CC(=O)O)C(N)=O)[C@@H](C)O)NC(=O)[C@H](Cc2c[nH]c3ccccc23)NC1=O` [BCY3399, A-(SEQ ID NO: 57)-STD] (H-ACPFGCMSDWSWPIWCSTD-NH2; linker 2-6-16 via TATA; N-terminus and C-terminus assumed), the figure is 410 nM; as for `CC[C@H](C)[C@@H]1NC(=O)[C@@H]2CCCN2C(=O)[C@H](Cc2c[nH]c3ccccc23)NC(=O)[C@H](CO)NC(=O)[C@H](Cc2c[nH]c3ccccc23)NC(=O)[C@H](Cc2c[nH]cn2)NC(=O)[C@H](CCC(=O)O)NC(=O)[C@H](CCC(N)=O)NC(=O)[C@@H]2CSCCC(=O)N3CN(CN(C3)C(=O)CCSC[C@H](NC(=O)[C@H](C)N)C(=O)N3CCC[C@H]3C(=O)N[C@@H](Cc3ccccc3)C(=O)NCC(=O)N2)C(=O)CCSC[C@@H](C(=O)N[C@H](C(=O)N[C@H](C(=O)N[C@@H](C)C(N)=O)[C@@H](C)O)[C@@H](C)O)NC(=O)[C@H](Cc2c[nH]c3ccccc23)NC1=O` [BCY3396, A-(SEQ ID NO: 54)-TTA] (H-ACPFGCQEHWSWPIWCTTA-NH2; linker 2-6-16 via TATA; N-terminus and C-terminus assumed), 102 nM; as for `CC[C@H](C)[C@@H]1NC(=O)[C@@H]2CCCN2C(=O)[C@H]([C@@H](C)O)NC(=O)[C@H](CO)NC(=O)[C@H](Cc2c[nH]c3ccccc23)NC(=O)[C@H](CC(N)=O)NC(=O)[C@H](CCCCNC(=N)N)NC(=O)[C@H](CCSC)NC(=O)[C@@H]2CSCCC(=O)N3CN(CN(C3)C(=O)CCSC[C@H](NC(C)=O)C(=O)N3CCC[C@H]3C(=O)N[C@@H](Cc3ccccc3)C(=O)N[C@H](CO)C(=O)N2)C(=O)CCSC[C@@H](C(N)=O)NC(=O)[C@H](Cc2c[nH]c3ccccc23)NC1=O` [BCY7907, Ac-(SEQ ID NO: 143)], 10 nM.
As for `CC[C@H](C)[C@@H]1NC(=O)[C@@H]2CCCN2C(=O)[C@H](Cc2c[nH]c3ccccc23)NC(=O)[C@H](CO)NC(=O)[C@H](Cc2c[nH]c3ccccc23)NC(=O)[C@H](CC(=O)O)NC(=O)[C@H](CCC(=O)O)NC(=O)[C@H](CCC(N)=O)NC(=O)[C@@H]2CSCCC(=O)N3CN(CN(C3)C(=O)CCSC[C@H](NC(=O)[C@H](C)N)C(=O)N3CCC[C@H]3C(=O)N[C@@H](Cc3ccccc3)C(=O)NCC(=O)N2)C(=O)CCSC[C@@H](C(=O)N[C@@H](CC(C)C)C(=O)N[C@@H](CO)C(=O)N[C@@H](CCC(=O)O)C(N)=O)NC(=O)[C@H](Cc2c[nH]c3ccccc23)NC1=O` [BCY3398, A-(SEQ ID NO: 56)-LSE] (H-ACPFGCQEDWSWPIWCLSE-NH2; linker 2-6-16 via TATA; N-terminus and C-terminus assumed), the Ki is 164 nM.
As for `CC[C@H](C)[C@@H]1NC(=O)[C@@H]2CCCN2C(=O)[C@H](Cc2c[nH]c3ccccc23)NC(=O)[C@H](CO)NC(=O)[C@H](Cc2c[nH]c3ccccc23)NC(=O)[C@H](CC(=O)O)NC(=O)[C@H](CCC(=O)O)NC(=O)[C@H](CCSC)NC(=O)[C@@H]2CSCCC(=O)N3CN(CN(C3)C(=O)CCSC[C@H](NC(=O)[C@@H](NC(=O)[C@H](CC(=O)O)NC(=O)[C@@H](N)CCSC)[C@@H](C)O)C(=O)N3CCC[C@H]3C(=O)N[C@@H](Cc3ccccc3)C(=O)NCC(=O)N2)C(=O)CCSC[C@@H](C(=O)N[C@@H](C)C(N)=O)NC(=O)[C@H](Cc2c[nH]c3ccccc23)NC1=O` [BCY3391, MDT-(SEQ ID NO: 49)-A] (H-MDTCPFGCMEDWSWPIWCA-NH2; linker 4-8-18 via TATA; N-terminus and C-terminus assumed), the figure is 198 nM; as for `CC[C@H](C)[C@@H]1NC(=O)[C@@H]2CCCN2C(=O)[C@H](Cc2c[nH]c3ccccc23)NC(=O)[C@H](CO)NC(=O)[C@H](Cc2c[nH]c3ccccc23)NC(=O)CNC(=O)[C@H](CO)NC(=O)[C@H](CCSC)NC(=O)[C@@H]2CSCCC(=O)N3CN(CN(C3)C(=O)CCSC[C@H](NC(=O)[C@H](CCC(=O)O)NC(=O)[C@H](CO)NC(=O)[C@@H](N)CC(=O)O)C(=O)N3CCC[C@H]3C(=O)N[C@@H](Cc3ccccc3)C(=O)NCC(=O)N2)C(=O)CCSC[C@@H](C(=O)N[C@@H](C)C(N)=O)NC(=O)[C@H](Cc2c[nH]c3ccccc23)NC1=O` [BCY3389, DSE-(SEQ ID NO: 47)-A] (H-DSECPFGCMSGWSWPIWCA-NH2; linker 4-8-18 via TATA; N-terminus and C-terminus assumed), 99.8 nM.
